In patent publication US6593307B1, “Cyclic-ADP-ribose analogs” (Regents of the University of Minnesota, priority 1999, dated 2003):
Entries after “also recorded” stand apart in the source; their conditions may differ. Like-named read-outs stand apart in the source and are kept apart here.

Tests used:
[1] = system: cord blood (CB) mononuclear cells (MNC); assay: Colony size (cells per colony) from CB MNC; format: cell-based, human; conditions: 100 μM, 24 hours priming
Description: (§2) After liquid culture, an appropriate number of MNC or CD34^+-enriched cells was plated in methylcellulose medium supplemented with a mixture of hemopoietic growth factors (Methocult; Stem Cell Technologies, Vancouver, BC, Canada). After 14 days of incubation in a humidified, 5% CO2 atmosphere at 37° C., colonies were scored using an inverted microscope, applying standard criteria for their identification.

[2] = system: bone marrow (BM)-derived clonogenic progenitors; assay: CFC output of bone marrow-derived clonogenic progenitors; format: cell-based, human; conditions: 100 μM, 24 hours, n=3
Source text: (§1) Normal bone marrow (BM) cells were obtained from donors providing marrow for allogeneic transplantation. Leukapheresis samples were obtained from normal donors providing peripheral blood (PB) progenitor cells for allogeneic transplant after a short course of granulocyte colony-stimulating factor. All donors gave informed consent. Mononuclear cells (MNC) from CB, BM and PB were separated by density gradient centrifugation on Ficoll-Hypaque (Sigma). After separation, cells were washed twice in Iscove's Modified Dulbecco's Medium (IMDM) containing 5% fetal calf serum (FCS) and resuspended in IMDM containing 10% FCS, penicillin 100 U/ml, streptomycin 100 μg/ml and glutamine 2 mM (complete medium).

[3] = system: peripheral blood (PB)-derived clonogenic progenitors; assay: CFC output of peripheral blood-derived clonogenic progenitors; format: cell-based, human; conditions: 100 μM, 24 hours, n=2
Source text: as §1

CD34+-enriched MNC = assay: CFC growth from CD34+-enriched fractions; format: cell-based, human; conditions: 100 μM, 24 hours, n=6
Description: Immunoaffinity purification of CD34^+ cells was used to enrich MNC in colony forming cells (CFC) and early progenitors (Krause, D. […] CD34^+ cell enrichment was performed by positive selection using the miniMACS immunomagnetic separation system (Miltenyi Biotec GmBH, Germany). Briefly, PB- or CB-derived MNC were suspended in phosphate-buffered saline (PBS) containing 0.5% bovine serum albumin and 5 mM EDTA and CD34^+ cells were separated using anti-CD34 antibody (clone: QBEND/10; isotype: mouse IgG1) and colloidal superparamagnetic beads. After labeling, the cell suspension was passed through a column held within a magnetic field causing CD34^+ cells to be retained in the column. Purified CD34^+ cells were then collected following removal of the column from the magnet and washing with buffer.

[4] = system: cord blood (CB) mononuclear cells (MNC)
Description: as §2

[5] = system: sea urchin egg homogenates; assay: Ca2+ release assay in sea urchin egg homogenates; format: biochemical, Strongylocentrotus purpuratus; conditions: for EC50: S. purpuratus egg homogenates, read-out: half-maximal concentration for Ca2+ release (EC50)
Description: The dilutions and all experiments were conducted at 17° C. Free Ca^2+ concentrations were measured by monitoring the fluorescence (490 nm excitation, 535 nm emission) of the indicator using a Perkin Elmer Model 650 spectrofluometer. […] For some experiments a BMG FluoStar 96 well fluorescence plate reader was used. In this case, samples to be tested were added to wells of a 96 well plate in 1.5 μl aliquots. Calcium release was initiated by adding 150 μl of homogenate to each well with a multichannel pipette. Six to eight wells were measured simultaneously. Samples to be tested were diluted in IM buffer containing 10 μM EGTA.

CB MNC [6] = assay: Fluorimetric determination of [Ca2+]i in CB MNC (FURA 2); format: cell-based, human
Description: Measurements were performed at room temperature in a 2 ml-cuvette under continuous stirring. […] Chem., 273, 8017-8024. The frequency of recording was 1 point/s. All measurements were performed in Ca^2+-free external solutions.

[7] = system: specific microsomal binding site for cADPR; conditions: cited from earlier work
CB MNC [8] = assay: Cytosine arabinoside-susceptibility of CB MNC CFC; format: cell-based, human
Source text: Thereafter, cells were washed, counted and plated in semisolid medium for assay of CFC at a concentration of 10^4 MNC/plate.

[9] = Stability to heat (boiling water bath), read out by Ca2+ release
Source text: Aliquots were then cooled on ice and the ability of the sample to release Ca^2+ determined. Data is average±sd for a representative experiment performed in triplicate.

CD38 [10] = conditions: 1 μg/ml CD38 at 37° C.
CD38 [11] = assay: Stability to hydrolysis by CD38, read out by Ca2+ release
Live L. pictus eggs = assay: Microinjection into live sea urchin eggs (Ca2+ mobilization, cortical reaction)
Source text: Live L. pictus eggs were preloaded with the calcium indicator, fluo 3, by microinjection.

[12] = general statement, not tested here; cited from earlier work
L. pictus = conditions: cited from earlier work
[13] = 100 nM in pipette, about 0.7 nM in the egg
[14] = 1 μM in pipette, about 10 nM in the egg
[15] = 10 μM in pipette, ~130 nM in the egg

Nc1ncnc2c1ncn2[C@@H]1O[C@H](COP(=O)(O)OP(=O)(O)OC[C@H]2OC(O)[C@H](O)[C@@H]2O)[C@@H](O)[C@H]1O (stereo partly shown) [ADPR, ADP-ribose]
Median number of cells per colony [1]: 11,560 | Range of number of cells per colony [1]: 6,200-19,000 | median CFC output, BM-derived [2]: 1,500 CFC/ml | median CFC output, PB-derived [3]: 1,460 CFC/ml | median CFC growth from CD34+-enriched fractions (CD34+-enriched MNC): 18,000 CFC/10^6 MNC | range of CFC growth from CD34+-enriched fractions (CD34+-enriched MNC): 360-70,000 CFC/10^6 MNC | Median CFC number per ml ([4]; 100 μM, 24 hours, CB MNC): 2,141 CFC/ml | Range of CFC number per ml ([4]; 100 μM, 24 hours, CB MNC): 600-13,120 CFC/ml | effect on CFC growth compared to untreated cells ([4]; any of the concentrations tested (1-1,000 μM)): No effect

N=c1c2nc(N)n3c2ncn1[C@@H]1O[C@H](COP(=O)(O)OP(=O)(O)OC[C@H]2O[C@@H]3[C@H](O)[C@@H]2O)[C@@H](O)[C@H]1O [8-NH2-cADPR]
effect on 3-deaza-cADPR-induced Ca2+ release ([5]; 2.7 nM 3-deaza-cADPR, 60 and 300 nM 8-amino-cADPR): blocks; also recorded: can also inhibit | amount of Ca2+ releasable by calcium ionophore A23187 vs untreated (CB MNC [6]; 10 μM, 24 hours): consistent increase | basal [Ca2+]i after incubation (CB MNC [6]; 10 μM, 24 hours, n=3, from 20±2): 14 ± 1 nM | effect on calcium increase induced by cADPR (CB MNC [6]; 100 μM, 2 hours pre-incubation): completely inhibited | [Ca2+]i following exposure to cADPR (CB MNC [6]; 2 hours pre-incubation with 100 μM 8-NH2-cADPR, then 100 μM cADPR for 4 hours, n=2): 20 nM | mean CFC output ([4]; 10 μM 8-NH2-cADPR plus 10-fold excess cADPR (100 μM), 24 hours, control 2,800): 1,200 CFC/ml | mean CFC output ([4]; 10 μM 8-NH2-cADPR plus 100-fold excess cADPR (1 mM), 24 hours, control 2,600): 2,500 CFC/ml | effect on colony growth ([4]; 10 μM, 24 hours pre-treatment): completely inhibited colony growth | median CFC output ([4]; 10 μM, 24 hours, n=3, untreated 3,400): zero | colony growth after further 24 hours with cADPR (100 μM) ([4]; after 10 μM 8-NH2-cADPR pre-treatment): did not restore colony growth

inositol trisphosphate
competition for the cADPR binding site relative to cADPR [7]: at least a thousand times less effectively than cADPR

Nc1ccn([C@@H]2O[C@H](CO)[C@@H](O)[C@@H]2O)c(=O)n1 [c-ARA, Cytosine arabinoside]
effect on the growth-stimulating effect of cADPR (CB MNC [8]; 1 μM c-ARA, 24 hours): complete inhibition | effect on increased replating efficiency produced by cADPR priming (CB MNC [8]; 1 μM c-ARA, 24 hours pretreatment): did not affect | median colony number (CB MNC [8]; c-ARA pretreated (1 μM, 24 hours), incubated without cADPR, n=8): 21 per 10^4 plated MNC

N=c1c2ncn3c2ccn1C1OC(COP(=O)(O)OP(=O)(O)OCC2OC3C(O)C2O)C(O)C1O (stereo not shown) [3-deaza-cADPR, cyclic 3-deaza-adenosine diphosphoribose]
lag before Ca2+ release at low concentrations [5]: an appreciable lag is seen | desensitization of homogenate to subsequent challenge by the other agonist ([5]; 1 μM cADPR, 500 nM 3-deaza-cADPR): renders the system unresponsive | EC50 [5]: 1 ± 0.4 nM | final concentration able/needed to elicit Ca2+ release ([5]; control traces, FIG. 3): 0.3 nM | resistance to heat hydrolysis [9]: resistant | fraction inactivated upon boiling ([9]; boiling for up to two hours, 350 nM): about 15% | [Ca2+]i after 24 hours (CB MNC [6]; 10 nM 3-deaza-cADPR, n=7, basal 20.3±1.8): 96.4 ± 5.0 nM | calcium response of intact cells over 30 min (CB MNC [6]; 100 μM cADPR or 10 nM 3-deaza-cADPR, zero-calcium external solution): same rate and extent | calcium levels following removal of the nucleotide (CB MNC [6]; at least 48 hours after removal): remained unchanged | [Ca2+]i(t=0), fitted parameter (CB MNC [6]; single exponential fit, 10 nM): 21.1 ± 0.6 nM | Δmax[Ca2+]i, fitted maximal calcium change (CB MNC [6]; single exponential fit, 10 nM): 74.0 ± 0.7 nM | τ, time constant of [Ca2+]i increase (CB MNC [6]; single exponential fit, 10 nM): 6.5 h | hydrolysis by CD38 (CD38 [10]): did not hydrolyze | median CFC output ([4]; 1 nM, n=5, control 1,150): 2,050 CFC/ml | median CFC output ([4]; 1 μM, n=5, control 1,150): 2,200 CFC/ml | CFC output compared to untreated cells ([4]; 1, 10, 100 and 1,000 nM, each concentration): significant increase | effect of 1 nM as share of the effect induced by 1 μM ([4]; CFC output): 95% | resistance to enzymatic hydrolysis (CD38 [11]): resistant | Ca2+ transient (Live L. pictus eggs; [13]): small | injected eggs with partial cortical reaction (Live L. pictus eggs; [13]): 1 out of 6 | full cortical reactions out of the 7 eggs injected (Live L. pictus eggs; [14]): 4 | partial cortical reaction out of the 7 eggs injected (Live L. pictus eggs; [14]): 1 | Ca2+ transient (Live L. pictus eggs; [15]): large | eggs with full cortical reaction (Live L. pictus eggs; [15]): 5 out of 5

N=c1c2ccn3c2ncn1C1OC(COP(=O)(O)OP(=O)(O)OCC2OC3C(O)C2O)C(O)C1O (stereo not shown) [7-deaza-cADPR]
agonist character [5]: partial agonist | EC50 [5]: ~25 nM | Ca2+ release relative to that induced by cADPR or 3-deaza-cADPR ([5]; maximal response, FIG. 4): about 70% | resistance of the N1-glycosidic linkage to hydrolysis [12]: resistant to hydrolysis | relative potency of cADPR and 7-deaza-cADPR (L. pictus): cADPR is more potent than 7-deaza-cADPR
